Reference: ChEMBL document CHEMBL3352415, “Synthesis and biological evaluation of novel thiadiazole amides as potent Cdc25B and PTP1B inhibitors” (Bioorg Med Chem Lett, 2014)
Calls of active or inactive are those of the source. The rule behind the calls is not given here.

Assays:
[1] = biological target: T1, M-phase inducer phosphatase 2 (Homo sapiens) (UniProt P30305); assay: Inhibition of Cdc25B (unknown origin) at 5 ug/ml
T1 sequence (whole entry): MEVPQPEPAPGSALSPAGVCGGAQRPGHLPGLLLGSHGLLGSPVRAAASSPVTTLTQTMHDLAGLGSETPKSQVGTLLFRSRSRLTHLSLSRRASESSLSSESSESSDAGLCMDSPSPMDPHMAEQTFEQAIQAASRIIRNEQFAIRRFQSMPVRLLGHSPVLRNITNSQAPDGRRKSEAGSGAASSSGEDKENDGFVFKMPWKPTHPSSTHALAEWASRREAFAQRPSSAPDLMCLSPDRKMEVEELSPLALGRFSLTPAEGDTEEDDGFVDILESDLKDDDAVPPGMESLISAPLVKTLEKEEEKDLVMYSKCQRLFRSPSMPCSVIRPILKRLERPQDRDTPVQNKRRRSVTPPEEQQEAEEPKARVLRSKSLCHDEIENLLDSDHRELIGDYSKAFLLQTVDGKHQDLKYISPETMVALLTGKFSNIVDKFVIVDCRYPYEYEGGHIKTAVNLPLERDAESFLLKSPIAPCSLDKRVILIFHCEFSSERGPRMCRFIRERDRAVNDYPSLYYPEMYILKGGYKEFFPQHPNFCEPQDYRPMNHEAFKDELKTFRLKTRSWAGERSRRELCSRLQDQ

[2] = biological target: T2, Tyrosine-protein phosphatase non-receptor type 1 (Homo sapiens) (UniProt P18031); assay: Inhibition of PTP1B (unknown origin) at 5 ug/ml
T2 sequence (whole entry): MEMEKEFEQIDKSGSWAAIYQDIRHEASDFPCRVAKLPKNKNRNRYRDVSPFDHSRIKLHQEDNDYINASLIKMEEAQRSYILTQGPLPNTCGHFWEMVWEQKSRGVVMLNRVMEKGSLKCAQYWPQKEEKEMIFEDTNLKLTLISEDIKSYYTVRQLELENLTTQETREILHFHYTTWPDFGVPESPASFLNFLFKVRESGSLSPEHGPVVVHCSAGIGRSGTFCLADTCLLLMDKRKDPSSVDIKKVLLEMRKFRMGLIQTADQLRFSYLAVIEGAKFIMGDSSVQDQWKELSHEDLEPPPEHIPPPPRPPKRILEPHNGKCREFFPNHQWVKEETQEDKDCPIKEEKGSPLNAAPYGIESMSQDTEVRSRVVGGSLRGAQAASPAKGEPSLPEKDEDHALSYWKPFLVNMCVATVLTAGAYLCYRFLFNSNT

[3] = biological target: T3, M-phase inducer phosphatase 2 (Homo sapiens, UniProt P30305); assay: Inhibition of Cdc25B (unknown origin)
T3 sequence (P30305 whole entry): T1 sequence (whole entry)

[4] = biological target: T4, Tyrosine-protein phosphatase non-receptor type 2 (Homo sapiens, UniProt P17706); assay: Inhibition of TCPTP (unknown origin)
T4 sequence (P17706 whole entry): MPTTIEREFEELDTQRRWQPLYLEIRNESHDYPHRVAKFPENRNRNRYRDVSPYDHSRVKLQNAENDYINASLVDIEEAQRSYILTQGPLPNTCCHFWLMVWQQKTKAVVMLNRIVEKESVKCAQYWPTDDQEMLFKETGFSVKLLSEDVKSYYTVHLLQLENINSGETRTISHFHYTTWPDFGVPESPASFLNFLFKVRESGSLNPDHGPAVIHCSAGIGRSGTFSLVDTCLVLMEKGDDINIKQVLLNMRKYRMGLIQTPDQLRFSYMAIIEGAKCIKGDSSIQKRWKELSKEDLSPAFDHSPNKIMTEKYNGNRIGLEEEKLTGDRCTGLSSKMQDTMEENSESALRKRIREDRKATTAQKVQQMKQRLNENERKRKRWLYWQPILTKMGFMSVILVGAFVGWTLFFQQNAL

[5] = biological target: Tyrosine-protein phosphatase non-receptor type 6 (Homo sapiens, UniProt P29350); assay: Inhibition of SHP1 (unknown origin)
[6] = biological target: T5, Tyrosine-protein phosphatase non-receptor type 11 (Homo sapiens, UniProt Q06124); assay: Inhibition of SHP2 (unknown origin)
T5 sequence (Q06124 whole entry): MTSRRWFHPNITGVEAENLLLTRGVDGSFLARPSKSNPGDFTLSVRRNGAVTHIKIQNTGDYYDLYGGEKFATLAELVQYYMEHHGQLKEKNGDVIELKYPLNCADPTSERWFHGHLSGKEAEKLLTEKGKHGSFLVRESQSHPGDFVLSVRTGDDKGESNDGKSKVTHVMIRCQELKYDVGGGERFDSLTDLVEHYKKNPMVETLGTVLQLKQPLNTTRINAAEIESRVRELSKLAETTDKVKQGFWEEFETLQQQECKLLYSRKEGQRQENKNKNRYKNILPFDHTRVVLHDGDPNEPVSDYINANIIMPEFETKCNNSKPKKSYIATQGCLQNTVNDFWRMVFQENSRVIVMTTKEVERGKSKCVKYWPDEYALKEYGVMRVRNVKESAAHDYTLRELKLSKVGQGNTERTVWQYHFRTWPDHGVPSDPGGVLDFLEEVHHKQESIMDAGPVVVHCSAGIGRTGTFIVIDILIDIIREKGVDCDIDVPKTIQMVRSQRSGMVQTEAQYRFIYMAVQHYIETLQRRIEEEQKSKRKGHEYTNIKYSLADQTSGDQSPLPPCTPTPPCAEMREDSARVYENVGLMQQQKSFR

[7] = biological target: Receptor-type tyrosine-protein phosphatase F (Homo sapiens, UniProt P10586); assay: Inhibition of LAR (unknown origin)
[8] = biological target: T6, Tyrosine-protein phosphatase non-receptor type 1 (Homo sapiens, UniProt P18031); assay: Inhibition of PTP1B (unknown origin)
T6 sequence (P18031 whole entry): T2 sequence (whole entry)

[9] = biological target: T2, Tyrosine-protein phosphatase non-receptor type 1 (Homo sapiens); assay: Mixed inhibition of PTP1B (unknown origin) by Lineweaver-Burk plot

Chain of Tyrosine-protein phosphatase non-receptor type 6 (P29350 whole entry): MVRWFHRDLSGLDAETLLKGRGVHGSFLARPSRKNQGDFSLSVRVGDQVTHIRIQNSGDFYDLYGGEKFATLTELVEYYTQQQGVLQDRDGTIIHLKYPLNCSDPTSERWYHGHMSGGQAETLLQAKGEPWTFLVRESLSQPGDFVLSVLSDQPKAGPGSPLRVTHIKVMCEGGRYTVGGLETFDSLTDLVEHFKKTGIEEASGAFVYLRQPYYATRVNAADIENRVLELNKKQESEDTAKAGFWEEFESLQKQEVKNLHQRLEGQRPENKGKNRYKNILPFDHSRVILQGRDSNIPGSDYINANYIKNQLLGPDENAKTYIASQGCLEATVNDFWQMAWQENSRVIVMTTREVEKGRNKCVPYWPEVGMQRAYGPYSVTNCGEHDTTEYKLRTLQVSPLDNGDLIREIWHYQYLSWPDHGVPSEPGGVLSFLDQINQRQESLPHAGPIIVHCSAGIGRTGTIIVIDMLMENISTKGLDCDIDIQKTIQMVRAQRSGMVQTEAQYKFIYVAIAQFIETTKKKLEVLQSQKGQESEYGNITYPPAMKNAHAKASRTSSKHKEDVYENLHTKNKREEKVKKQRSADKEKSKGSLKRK
Chain of Receptor-type tyrosine-protein phosphatase F (P10586 whole entry): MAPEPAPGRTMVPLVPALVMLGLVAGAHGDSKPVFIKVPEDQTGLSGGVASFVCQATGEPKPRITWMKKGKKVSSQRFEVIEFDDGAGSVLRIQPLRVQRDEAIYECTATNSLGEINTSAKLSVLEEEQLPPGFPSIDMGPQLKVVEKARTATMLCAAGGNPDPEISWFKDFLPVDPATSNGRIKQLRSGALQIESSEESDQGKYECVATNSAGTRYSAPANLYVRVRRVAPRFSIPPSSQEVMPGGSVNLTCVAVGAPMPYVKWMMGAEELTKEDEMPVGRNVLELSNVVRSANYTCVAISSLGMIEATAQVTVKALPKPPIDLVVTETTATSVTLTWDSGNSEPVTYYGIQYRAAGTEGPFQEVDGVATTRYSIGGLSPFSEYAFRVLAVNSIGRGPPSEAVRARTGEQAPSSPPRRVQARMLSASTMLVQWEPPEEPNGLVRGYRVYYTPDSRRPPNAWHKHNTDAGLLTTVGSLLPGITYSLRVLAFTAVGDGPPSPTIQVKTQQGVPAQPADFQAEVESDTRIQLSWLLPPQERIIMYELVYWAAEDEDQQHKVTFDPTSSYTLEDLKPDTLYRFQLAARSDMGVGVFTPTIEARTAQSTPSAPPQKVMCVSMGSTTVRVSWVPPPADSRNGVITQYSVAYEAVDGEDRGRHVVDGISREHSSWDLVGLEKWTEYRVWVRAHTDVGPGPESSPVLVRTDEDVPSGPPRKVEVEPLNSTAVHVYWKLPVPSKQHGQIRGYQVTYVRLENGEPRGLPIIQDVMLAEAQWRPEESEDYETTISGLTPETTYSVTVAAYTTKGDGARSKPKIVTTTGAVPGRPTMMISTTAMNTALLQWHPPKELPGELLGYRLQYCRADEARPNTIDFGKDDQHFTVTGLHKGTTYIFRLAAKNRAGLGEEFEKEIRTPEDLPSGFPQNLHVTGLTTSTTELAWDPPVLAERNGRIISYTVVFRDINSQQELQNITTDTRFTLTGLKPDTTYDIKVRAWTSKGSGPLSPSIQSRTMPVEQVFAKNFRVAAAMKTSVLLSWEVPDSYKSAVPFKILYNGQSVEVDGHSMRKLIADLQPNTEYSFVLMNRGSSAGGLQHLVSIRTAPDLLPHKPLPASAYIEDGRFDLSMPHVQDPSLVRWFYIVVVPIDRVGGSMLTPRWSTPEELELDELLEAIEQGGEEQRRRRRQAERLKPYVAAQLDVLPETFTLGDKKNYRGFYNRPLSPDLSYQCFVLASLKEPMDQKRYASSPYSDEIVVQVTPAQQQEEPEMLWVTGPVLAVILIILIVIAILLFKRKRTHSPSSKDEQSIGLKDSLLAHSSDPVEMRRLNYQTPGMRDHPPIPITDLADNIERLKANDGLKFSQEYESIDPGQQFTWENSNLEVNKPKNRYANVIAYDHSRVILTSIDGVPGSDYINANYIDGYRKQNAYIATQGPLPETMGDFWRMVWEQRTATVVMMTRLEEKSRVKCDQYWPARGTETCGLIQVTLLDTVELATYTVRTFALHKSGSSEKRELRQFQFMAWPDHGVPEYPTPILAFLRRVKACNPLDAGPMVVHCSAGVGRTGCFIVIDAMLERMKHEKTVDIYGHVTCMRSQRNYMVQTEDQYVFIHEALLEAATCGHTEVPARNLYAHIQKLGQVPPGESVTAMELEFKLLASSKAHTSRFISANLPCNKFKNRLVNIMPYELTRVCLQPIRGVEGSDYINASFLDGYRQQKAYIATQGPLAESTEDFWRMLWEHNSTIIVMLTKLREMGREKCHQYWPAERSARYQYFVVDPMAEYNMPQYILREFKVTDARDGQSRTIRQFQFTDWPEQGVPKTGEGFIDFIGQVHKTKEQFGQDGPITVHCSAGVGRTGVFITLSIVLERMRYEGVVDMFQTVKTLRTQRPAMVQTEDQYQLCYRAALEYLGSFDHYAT

Compound	inhibition [1]	inhibition [2]	IC50 [3]	IC50 [4]	IC50 [5]	IC50 [6]	IC50 [7]	IC50 [8]	inhibition [9]
O=C(Nc1nnc(-c2ccc(Oc3ccc([N+](=O)[O-])cc3)cc2)s1)c1ccc([N+](=O)[O-])cc1	96.4%	95.2%	8.54 µM	Not Active	Not Active	Not Active	Not Active	3.6 µM	–
O=C(Nc1nnc(-c2ccc(Oc3ccc([N+](=O)[O-])cc3)cc2)s1)c1ccco1	87.7%	75.1%	6.44 µM	Not Active	Not Active	Not Active	Not Active	11.3 µM	–
O=C(Cc1ccccc1)Nc1nnc(-c2ccc(Oc3ccc([N+](=O)[O-])cc3[N+](=O)[O-])cc2)s1	91.7%	90.9%	3.29 µM	Not Active	Not Active	Not Active	Not Active	4.11 µM	–
O=C(Nc1nnc(-c2ccc(Oc3ccc([N+](=O)[O-])cc3[N+](=O)[O-])cc2)s1)c1cccc([N+](=O)[O-])c1	99.2%	85.6%	2.52 µM	Not Active	Not Active	Not Active	Not Active	2.67 µM	Active
O=C(Nc1nnc(-c2ccc(Oc3ccc([N+](=O)[O-])cc3[N+](=O)[O-])cc2)s1)c1ccc([N+](=O)[O-])cc1	97.7%	81.8%	9.4 µM	Not Active	Not Active	Not Active	Not Active	15.8 µM	–
O=C(Nc1nnc(-c2ccc(Oc3ccc([N+](=O)[O-])cc3[N+](=O)[O-])cc2)s1)c1ccccc1[N+](=O)[O-]	88.3%	87.4%	15.8 µM	Not Active	Not Active	Not Active	Not Active	8.12 µM	–
O=C(Nc1nnc(-c2ccc(Oc3ccc([N+](=O)[O-])cc3)cc2)s1)c1ccccc1F	63.6%	60.6%	10.2 µM	Not Active	Not Active	Not Active	Not Active	17.1 µM	–
O=C(Nc1nnc(-c2ccc(Oc3ccc([N+](=O)[O-])cc3)cc2)s1)c1ccccc1	86.3%	79.6%	7.79 µM	Not Active	Not Active	Not Active	Not Active	9.89 µM	–

More lines, main results first:

inhibition [1]	inhibition [2]	IC50 [3]	IC50 [4]	IC50 [5]	IC50 [6]	IC50 [7]	IC50 [8]	Compound	inhibition [9]
84.5%	84.2%	3.99 µM	Not Active	Not Active	Not Active	Not Active	5.24 µM	COc1cc(C(=O)Nc2nnc(-c3ccc(Oc4ccc([N+](=O)[O-])cc4[N+](=O)[O-])cc3)s2)cc(OC)c1OC	–
94%	60.4%	9.41 µM	Not Active	Not Active	Not Active	Not Active	8.05 µM	Cc1ccccc1C(=O)Nc1nnc(-c2ccc(Oc3ccc([N+](=O)[O-])cc3)cc2)s1	–
88.8%	72.6%	2.77 µM	Not Active	Not Active	Not Active	Not Active	9.08 µM	COc1ccc(C(=O)Nc2nnc(-c3ccc(Oc4ccc([N+](=O)[O-])cc4)cc3)s2)cc1	–
93.7%	84%	6.51 µM	Not Active	Not Active	Not Active	Not Active	8.44 µM	Cc1ccccc1C(=O)Nc1nnc(-c2ccc(Oc3ccc([N+](=O)[O-])cc3[N+](=O)[O-])cc2)s1	–
94.5%	85.3%	2.47 µM	Not Active	Not Active	Not Active	Not Active	10.8 µM	Cc1ccc(C(=O)Nc2nnc(-c3ccc(Oc4ccc([N+](=O)[O-])cc4[N+](=O)[O-])cc3)s2)cc1	–
92.6%	86.3%	8.33 µM	Not Active	Not Active	Not Active	Not Active	10.8 µM	COc1cccc(C(=O)Nc2nnc(-c3ccc(Oc4ccc([N+](=O)[O-])cc4[N+](=O)[O-])cc3)s2)c1	–
99.3%	88.4%	5.42 µM	Not Active	Not Active	Not Active	Not Active	3.51 µM	O=C(Nc1nnc(-c2ccc(Oc3ccc([N+](=O)[O-])cc3[N+](=O)[O-])cc2)s1)c1ccccc1F	–
97%	82.4%	8.01 µM	Not Active	Not Active	Not Active	Not Active	10 µM	O=C(Nc1nnc(-c2ccc(Oc3ccc([N+](=O)[O-])cc3)cc2)s1)c1cccnc1	–
88.9%	82.1%	5.69 µM	Not Active	Not Active	Not Active	Not Active	6.07 µM	O=C(Cc1cccc2ccccc12)Nc1nnc(-c2ccc(Oc3ccc([N+](=O)[O-])cc3[N+](=O)[O-])cc2)s1	–
90.4%	74.1%	5.16 µM	Not Active	Not Active	Not Active	Not Active	7.52 µM	O=C(Cc1cccc2ccccc12)Nc1nnc(-c2ccc(Oc3ccc([N+](=O)[O-])cc3)cc2)s1	–
